Where two headings read alike, the source gives them in different places.
Experiments:
HuTu 80 [1] = assay: Cytotoxicity assay (Cytell Cell Imaging, Cell Viability Bio App); settings: read-out: Cytotoxic effects (IC50) HuTu 80; cancer cell line HuTu 80; tested at 1–100 μM; mean ± SD, three repeats
PANC-1 [2] = assay: as above; settings: read-out: Cytotoxic effects (IC50) PANC-1; cancer cell line PANC-1; tested at 1–100 μM; mean ± SD, three repeats
M-HeLa [3] = assay: as above; settings: read-out: Cytotoxic effects (IC50) M-HeLa; cancer cell line M-HeLa; tested at 1–100 μM; mean ± SD, three repeats
in vitro = settings: human
PANC-1 [4] = settings: human
M-HeLa [5] = settings: for IC50: human
HuTu 80 [6] = settings: human
M-HeLa cells = assay: Cell apoptosis analysis by flow cytometry (annexin V-FITC / propidium iodide); assay type: cell-based, human; settings: 24 h
Description: Cell Culture. M-HeLa cells at 1 × 10^6 cells/well in a final volume of 2 mL were seeded into 6-well plates. After 24 h of incubation, various concentrations of Compounds 2f and 3f were added to wells.
Cell Apoptosis Analysis. The cells were harvested at 2000 rpm for 5 min and, then, washed twice with ice-cold PBS, followed by resuspension in binding buffer. Next, the samples were incubated with 5 μL of annexin V-FITC and 5 μL of propidium iodide for 15 min at room temperature in the dark. Finally, the cells were analyzed by flow cytometry (Guava easy Cyte, MERCK, Kenilworth Union County, NJ, USA). The experiments were repeated three times.

M-HeLa cell lines = assay: Cell cycle analysis by flow cytometry (propidium iodide); assay type: cell-based, human; settings: 24 h, control 68.1
Description: Cell cycle analysis by quantification of DNA content is a reliable method to investigate which phase cell cycle has been arrested, wherein propidium iodide dye is used which binds in proportion to the amount of DNA present in the cell. […] The results reveal that 3f caused an increase in % of G1 arrest. Compound 3f was on 81.4% and 83.8% at 50 and 100 µM, respectively, which is more than control cells (68.1%) (Figure 9).
The DNA content and cell-cycle distribution after genistein treatment were estimated by flow cytometry. Cell seeding, drug treatment and ethanol fixation were similar to cell proliferation assay. After washing with PBS, genistein and daidzein-treated and -fixed cells were suspended in 150 μL of PBS, then 0.5 mL phosphate-citrate buffer (0.05 M, pH 4.0) was added and the suspension was incubated at room temperature for 5 min to facilitate the extraction of low-molecular-weight DNA. Following centrifugation, the cells were resuspended in 150 μL DNA staining solution (20 μg/mL propidium iodide, 200 μg/mL […], and 0.1% Triton X-100) and incubated in the CO2 incubator (37 °C for 30 min). Cell cycle distribution was determined by fluorescence-activated cell sorting analysis of propidium iodide-stained ethanol-fixed cells using a Guava EasyCyte (Guava easy Cyte, MERCK, Kenilworth Union County, NJ, USA).

[7] = Chang Liver cells (normal liver cell line)

| SMILES | IC50 (HuTu 80 [1]) [µM] | IC50 (PANC-1 [2]) [µM] | IC50 (M-HeLa [3]) [µM] | IC50 (in vitro; [7]) [µM] | IC50 (PANC-1 [4]) [µM] | IC50 (in vitro) [µM] | IC50 (M-HeLa [5]) [µM] | IC50 (HuTu 80 [6]) [µM] | also measured |
| --- | --- | --- | --- | --- | --- | --- | --- | --- | --- |
| O=c1[nH]cc(F)c(=O)[nH]1 [5-Fluorouracil, reference compound] | 65.2 ± 5.5 | 68.3 ± 5.7 | 62 ± 4.9 | 72.4 ± 6.5 | – | – | – | – | – |
| CCOC(=O)c1cnc(Nc2c([N+](=O)[O-])cc([N+](=O)[O-])c3no[n+]([O-])c23)s1 [Compound 3c, 7-(5-(ethoxycarbonyl)thiazol-2-ylamino)-4,6-dinitrobenzo[c][1,2,5]oxadiazole 1-oxide] | – | – | – | – | > 100 | 100 ± 9.4 | 95.8 ± 8.4 | > 100 | – |
| Cc1cnc(Nc2c([N+](=O)[O-])cc([N+](=O)[O-])c3no[n+]([O-])c23)s1 [Compound 3b, 7-(5-methylthiazol-2-ylamino)-4,6-dinitrobenzo[c][1,2,5]oxadiazole 1-oxide] | – | – | – | – | > 100 | > 100 | 70 ± 6.2 | > 100 | – |
| O=[N+]([O-])c1cc([N+](=O)[O-])c2no[n+]([O-])c2c1Nc1nccs1 [Compound 3a, 4,6-dinitro-7-(thiazol-2-ylamino)benzo[c][1,2,5]oxadiazole 1-oxide] | – | – | – | – | > 100 | > 100 | 61 ± 5.4 | > 100 | Toxicity in words, normal cells (Chang Liver) (Chang Liver): not toxic; Cytotoxicity in words, M-HeLa (M-HeLa [5]): moderate cytotoxicity |
| COc1ccc(Nc2nccs2)cc1 [Compound 2f] | > 100 | > 100 | 93.8 ± 8.4 | > 100 | – | – | – | – | – |
| COc1ccc(N(c2nccs2)c2c([N+](=O)[O-])cc([N+](=O)[O-])c3no[n+]([O-])c23)cc1 [Compound 3f, 7-((4-methoxyphenyl)(thiazol-2-yl)amino)-4,6-dinitrobenzo[c][1,2,5]oxadiazole 1-oxide] | – | – | – | – | > 100 | > 100 | 56.6 ± 4.7 | > 100 | Toxicity in words, normal cells (Chang Liver) (Chang Liver): not toxic; Early apoptotic cells (Ea) (M-HeLa cells; 50 µM): 10.73%; Early apoptotic cells (Ea) (M-HeLa cells; 100 µM): 17.29%; Cytotoxicity in words, M-HeLa (M-HeLa [5]): moderate cytotoxicity; Cells in G1 phase (M-HeLa cell lines; 50 µM): 81.4%; Cells in G1 phase (M-HeLa cell lines; 100 µM): 83.8% |
| CCOC(=O)c1csc(N)n1 [Compound 2c] | > 100 | > 100 | 63.3 ± 5.7 | 95.4 ± 8.7 | – | – | – | – | – |
| Cc1cnc(Nc2ccccc2)s1 [Compound 2e] | > 100 | > 100 | 92 ± 8.2 | > 100 | – | – | – | – | – |
| Cc1cnc(N(c2ccccc2)c2c([N+](=O)[O-])cc([N+](=O)[O-])c3no[n+]([O-])c23)s1 [Compound 3e, 7-((5-methylthiazol-2-yl)(phenyl)amino)-4,6-dinitrobenzo[c][1,2,5]oxadiazole 1-oxide] | – | – | – | – | > 100 | 85.8 ± 7.4 | 79 ± 6.3 | > 100 | – |
| Cc1cnc(N)s1 [Compound 2b] | > 100 | > 100 | 92 ± 7.9 | > 100 | – | – | – | – | – |
| Nc1nccs1 [Compound 2a] | – | – | – | – | > 100 | > 100 | 91 ± 8.3 | > 100 | – |
| O=[N+]([O-])c1cc([N+](=O)[O-])c2no[n+]([O-])c2c1N(c1ccccc1)c1nccs1 [Compound 3d, 4,6-dinitro-7-(phenyl(thiazol-2-yl)amino)benzo[c][1,2,5]oxadiazole 1-oxide] | – | – | – | – | > 100 | 86.1 ± 7.8 | 61 ± 5.6 | > 100 | Toxicity in words, normal cells (Chang Liver) (Chang Liver): not toxic; Cytotoxicity in words, M-HeLa (M-HeLa [5]): moderate cytotoxicity |
